The nature of the series: Storage stability, related substance test. Conditions: Raw material. Format: physicochemical. How it is done: Evaluation of Storage Stability of the Preparations
The storage stabilities of the preparations were evaluated according to the test criteria for related substances.

From patent publication US20200306266A1, “SOLID DISPERSION OF DUTASTERIDE, METHOD FOR PRODUCING SAME, AND PHARMACEUTICAL COMPOSITION COMPRISING SAME” (KOREA PRIME PHARM CO., LTD., priority 2017, published 2020) come the findings set out here.

The structures appear in SMILES notation.

As to `C[C@]12C=CC(=O)N[C@@H]1CC[C@@H]1[C@@H]2CC[C@]2(C)[C@@H](C(=O)Nc3cc(C(F)(F)F)ccc3C(F)(F)F)CC[C@@H]12` [Dutasteride, 17β-N-[2,5-bis(trifluoromethyl)]phenylcarbamoyl-4-aza-5α-androst-1-en-3-one], the Judgement entry is “Suitable”.
